Assay results published in ChEMBL document CHEMBL3044831, “Docking study, in vitro anticancer screening and radiosensitizing evaluation of some new fluorine-containing quinoline and pyrimidoquinoline derivatives bearing a sulfonamide moiety” (Med Chem Res, 2011).

Assays:
[1] = system: MCF7; assay: Cytotoxicity against Homo sapiens (human) MCF-7 cells after 48 hr by SRB assay relative to control; assay type: functional, cell-based; settings: MCF7, 48 h
[2] = system: MCF7; assay: Cytotoxicity against Homo sapiens (human) MCF-7 cells assessed as surviving fraction at 100 uM after 48 hr by SRB assay relative to control; assay type: functional
[3] = system: MCF7; assay: Cytotoxicity against Homo sapiens (human) MCF-7 cells assessed as surviving fraction at 50 uM after 48 hr by SRB assay relative to control; assay type: functional
[4] = system: MCF7; assay: Cytotoxicity against Homo sapiens (human) MCF7 cells assessed as surviving fraction at 25 uM after 48 hr by SRB assay relative to control; assay type: functional
[5] = system: MCF7; assay: Cytotoxicity against Homo sapiens (human) MCF-7 cells assessed as surviving fraction at 10 uM after 48 hr by SRB assay relative to control; assay type: functional
[6] = system: MCF7; assay: Potentiation of gamma-irradiation-induced cytotoxicity against Homo sapiens (human) MCF-7 cells after 48 hr by SRB assay; assay type: functional, cell-based; settings: MCF7, light or radiation study
[7] = system: MCF7; assay: Radiosensitizing activity against Homo sapiens (human) gamma-irradiated MCF-7 cells assessed as surviving fraction at 50 uM after 48 hr by SRB assay (reference value: 0.927 +/- 0.02); assay type: functional
[8] = system: MCF7; assay: Radiosensitizing activity against Homo sapiens (human) gamma-irradiated MCF-7 cells assessed as surviving fraction at 100 uM after 48 hr by SRB assay (reference value: 0.927 +/- 0.02); assay type: functional
[9] = system: MCF7; assay: Radiosensitizing activity against Homo sapiens (human) gamma-irradiated MCF-7 cells assessed as surviving fraction at 25 uM after 48 hr by SRB assay (reference value: 0.927 +/- 0.02); assay type: functional
[10] = system: MCF7; assay: Radiosensitizing activity against Homo sapiens (human) gamma-irradiated MCF-7 cells assessed as surviving fraction at 10 uM after 48 hr by SRB assay (reference value: 0.927 +/- 0.02); assay type: functional

SMILES	IC50 [1] [µM]	fold change (surviving fraction) [2]	fold change (FC) [3]	fold change (FC) [4]	fold change (FC) [5]	IC50 [6] [µM]	fold change (FC) [7]	fold change (FC) [8]	fold change (FC) [9]	fold change (FC) [10]
CC1(C)CC(=O)C2=C(C1)N(c1ccc(S(N)(=O)=O)cc1)c1ncnc(N=C=S)c1C2c1ccc(F)cc1 (stereo not given)	85.6	0.534	0.487	0.755	0.922	–	–	–	–	–
CC1(C)CC(=O)C2=C(C1)N(c1ccc(S(N)(=O)=O)cc1)C(N)=C(C#N)C2c1ccc(F)cc1 (stereo not given)	71.8	0.482	0.427	0.562	0.855	–	–	–	–	–
CC1(C)CC(=O)C2=C(C1)N(c1ccc(S(N)(=O)=O)cc1)c1nc[nH]c(=O)c1C2c1ccc(F)cc1 (stereo not given)	77.1	0.447	0.499	0.757	0.934	–	–	–	–	–
CC(=O)NC1=C(C#N)C(c2ccc(F)cc2)C2=C(CC(C)(C)CC2=O)N1c1ccc(S(N)(=O)=O)cc1 (stereo not given)	85.9	0.483	0.598	0.763	0.882	–	–	–	–	–
CC(=O)N(C(C)=O)C1=C(C#N)C(c2ccc(F)cc2)C2=C(CC(C)(C)CC2=O)N1c1ccc(S(N)(=O)=O)cc1 (stereo not given)	79.7	0.498	0.455	0.733	0.987	–	–	–	–	–
Cc1nc2c(c(=O)[nH]1)C(c1ccc(F)cc1)C1=C(CC(C)(C)CC1=O)N2c1ccc(S(N)(=O)=O)cc1 (stereo not given)	69.8	0.425	0.494	0.654	0.768	–	–	–	–	–
CC1(C)CC(=O)C2=C(C1)N(c1ccc(S(N)(=O)=O)cc1)c1ncnc(N)c1C2c1ccc(F)cc1 (stereo not given)	52.6	0.381	0.311	0.448	0.795	28.5	0.163	0.222	0.347	0.51
CCO/C=N/C1=C(C#N)C(c2ccc(F)cc2)C2=C(CC(C)(C)CC2=O)N1c1ccc(S(N)(=O)=O)cc1 (stereo not given)	67.3	0.401	0.477	0.62	0.904	36	0.199	0.156	0.428	0.677
CC1(C)CC(=O)C2=C(C1)N(c1ccc(S(N)(=O)=O)cc1)C(NC(=O)CCl)=C(C#N)C2c1ccc(F)cc1 (stereo not given)	70.8	0.43	0.45	0.7	0.885	–	–	–	–	–
CC1(C)CC(=O)C2=C(C1)N(c1ccc(S(N)(=O)=O)cc1)c1nc(CCl)[nH]c(=O)c1C2c1ccc(F)cc1 (stereo not given)	> 100	0.768	0.784	0.77	0.984	–	–	–	–	–
CC1(C)CC(=O)C2=C(C1)N(c1ccc(S(N)(=O)=O)cc1)c1nc(CC#N)[nH]c(=O)c1C2c1ccc(F)cc1 (stereo not given)	> 100	0.6	0.662	0.864	0.976	–	–	–	–	–
CCNC(=S)NC1=C(C#N)C(c2ccc(F)cc2)C2=C(CC(C)(C)CC2=O)N1c1ccc(S(N)(=O)=O)cc1 (stereo not given)	> 100	0.609	0.642	0.852	0.924	–	–	–	–	–
CC1(C)CC(=O)C2=C(C1)N(c1ccc(S(N)(=O)=O)cc1)C(N1C(=O)CCC1=O)=C(C#N)C2c1ccc(F)cc1 (stereo not given)	94.1	0.488	0.678	0.885	0.933	–	–	–	–	–
CC1(C)CC(=O)C2=C(C1)N(c1ccc(S(N)(=O)=O)cc1)C(N)=C(C(N)=O)C2c1ccc(F)cc1 (stereo not given)	75.2	0.493	0.409	0.711	0.906	–	–	–	–	–
CC1(C)CC(=O)C2=C(C1)N(c1ccc(S(N)(=O)=O)cc1)C(N)=C(C1=NCCN1)C2c1ccc(F)cc1 (stereo not given)	87	0.581	0.423	0.679	0.873	–	–	–	–	–
CC(=O)CC(=O)NC1=C(C#N)C(c2ccc(F)cc2)C2=C(CC(C)(C)CC2=O)N1c1ccc(S(N)(=O)=O)cc1 (stereo not given)	> 100	0.663	0.76	0.905	0.919	–	–	–	–	–
CC1(C)CC(=O)C2=C(C1)N(c1ccc(S(N)(=O)=O)cc1)c1nc[nH]c(=S)c1C2c1ccc(F)cc1 (stereo not given)	> 100	0.608	0.686	0.901	0.99	–	–	–	–	–
CC1(C)CC(=O)C2=C(C1)N(c1ccc(S(N)(=O)=O)cc1)c1ncnc(Cl)c1C2c1ccc(F)cc1 (stereo not given)	85.6	0.457	0.635	0.785	0.909	–	–	–	–	–
CCOC(=O)Cn1cnc2c(c1=O)C(c1ccc(F)cc1)C1=C(CC(C)(C)CC1=O)N2c1ccc(S(N)(=O)=O)cc1 (stereo not given)	> 100	0.572	0.686	0.898	0.969	–	–	–	–	–
CC1(C)CC(=O)C2=C(C1)N(c1ccc(S(N)(=O)=O)cc1)c1ncnc(NN)c1C2c1ccc(F)cc1 (stereo not given)	81.2	0.518	0.478	0.652	0.959	–	–	–	–	–
